{
  "source": "paper PMC9306920",
  "about": "(Clinical Pharmacology in Drug Development, 2022)",
  "key": {"[1]": {"test_system": "healthy subjects", "assay": "Thorough QT study: cardiodynamic ECG assessment", "type": "in vivo, human"}, "[2]": {"assay": "Plasma pharmacokinetics in thorough QT study", "type": "in vivo, human", "conditions": "moxifloxacin 400 mg single oral dose"}},
  "data": [
    {"smiles": "COc1c(N2C[C@@H]3CCCN[C@@H]3C2)c(F)cc2c(=O)c(C(=O)O)cn(C3CC3)c12", "note": "[Moxifloxacin]", "values": [
      {"measurement": "Subjects with QTcF of >450 milliseconds or ΔQTcF of >30 milliseconds", "setting": "[1]; any treatment, any time point", "value": "No subject"},
      {"measurement": "U-wave presence", "setting": "[1]; during the study", "value": "No U‐wave observations"},
      {"measurement": "Largest LS mean ΔQRS", "setting": "[1]; moxifloxacin 400 mg, 0.5, 1, and […] after dosing", "value": 0.2, "unit": "milliseconds"},
      {"measurement": "Largest LS mean ΔΔQTcF", "setting": "[1]; moxifloxacin 400 mg, 2 hours after dosing", "value": 12.9, "unit": "milliseconds"},
      {"measurement": "Peak LS mean ΔQTcF", "setting": "[1]; moxifloxacin 400 mg, 3 hours after dosing", "value": 9.2, "unit": "milliseconds"},
      {"measurement": "Largest LS mean ΔHR", "setting": "[1]; moxifloxacin 400 mg, 6 hours after dosing", "value": 8.7, "unit": "bpm"},
      {"measurement": "Frequencies of flat, notched, and biphasic T-wave morphologies", "setting": "[1]; versus placebo", "value": "lower than or the same as for placebo"},
      {"measurement": "Time at which plasma concentration reached its maximal value", "setting": "[2]", "value": 2, "unit": "h"},
      {"measurement": "Time plasma concentration remained detectable", "setting": "[2]", "value": 72, "unit": "h"}
    ]}
  ]
}
